Measured values taken from patent US20210032651A1, “IMPROVEMENT OF HERBICIDE TOLERANCE TO HPPD INHIBITORS BY DOWN-REGULATION OF PUTATIVE 4-HYDROXYPHENYLPYRUVATE REDUCTASES IN SOYBEAN” (BASF SE, priority 2017, published 2021).

Test system: soybean T1 plants transformed with pMLS0519 or pCPE825
Test: Field trial of the T1 generation, herbicide tolerance
Assay type: in vivo
Conditions: Puerto Rico, pMLS0519 and pCPE825 the most effective of the constructs tested

Which “tolerance in field trial” value does the source give for `CS(=O)(=O)c1cc(C(F)(F)F)ccc1C(=O)c1cnoc1C1CC1` [isoxaflutole, (5-cyclopropyl-4-isoxazolyl)[2-(methylsulfonyl)-4-(trifluoromethyl)phenyl]methanone] here?
The value was “good tolerance”.
